These compounds were tested against T1, immobilized human serum albumin (Homo sapiens, UniProt P02768) (assay: Albumin binding: affinity chromatography on columns with immobilized human serum albumin (net retention time)). Settings: isolated binders; HSA column 25° C., PBS pH 7.4/isopropanol gradient.
T1 construct: purchased Chiralpak (Chiraltech) 34712
Description: In order to identify suitable binder molecules, which when bound to a peptide, such as an insulin, are able to improve the half-life in plasma and to prolong the profile of action, a system was established based on affinity chromatography with serum albumin columns, i.e. columns with immobilized serum albumin.
The net retention time of the binders (samples) was calculated according to the following formula: Net retention time=RetTimeSample−RetTimet0 marker
• Instrument: Waters Alliance 2795/Waters PDA 2996 or Waters H-Class UPLC equipped with a Waters Acquity photodiode-array detector • Software: Waters Empower 3 • Column: […]® HSA 50×4 mm; 5 μm Particle size • Chiraltech Order Numbers: HSA: 34712 • Eluent A: Phosphate Buffer saline (PBS) at pH=7.4 • Gibco PBS pH7.4 (10×) Phosphate Buffered Saline 500 ml; • Order Number: 70011-036 (500 ml) • Eluent B: Isopropanol • Fisher Order Number: A461-1 (10 • Gradient:
• Column temperature: 25° C. • Flow rate: 1.0 ml/min • Detection: λ=220 nm • Injection volume: 20 μL • Sample Conc.: 1 mg/ml insulin solution in PBS for insulin samples • 5 μL of 10 mM DMSO stock solution (DMSO evaporated and re-dissolved in 200 μL i-propanol/water 1:1 v/v) for isolated binder samples (250 μM, 0.2 mg/ml at 800 Da MolWeight) • t0 marker Sodium Nitrate (NaNO3) solution in water, 0.05 mg/ml • Diluted from aqueous 1 mg/ml stock solution (Fluka Order Number: 74246-100ML) • Reported Value Net retention time of sample: RetTime Sample−RetTime t0 marker
Affinity chromatography was carried out i) for insulin conjugates according to Examples 3.3 and 3.4 on a Waters Alliance Separation Module 2695 equipped with a Waters photodiode-array detector 2996 or Waters H-Class UPLC equipped with a Waters Acquity photodiode-array detector and ii) for isolated binders according to Example 2.11 on a Waters Alliance Separation Module 2795 equipped with a Waters photodiode-array detector 2996 or Waters H-Class UPLC equipped with a Waters Acquity photodiode-array detector.
Columns with immobilized human serum albumin (50×4 mm; 5 μm particle size) were purchased from Chiralpak and used for separations.
The columns with immobilized serum albumin were kept at 25° C. during the LC run, UV detection was carried out at 220 nm and injection volume was 20 μL.
The net retention time of the samples was reported according to Net retention time=RetTime Sample−RetTime t0 marker

T1 sequence (P02768 25-609): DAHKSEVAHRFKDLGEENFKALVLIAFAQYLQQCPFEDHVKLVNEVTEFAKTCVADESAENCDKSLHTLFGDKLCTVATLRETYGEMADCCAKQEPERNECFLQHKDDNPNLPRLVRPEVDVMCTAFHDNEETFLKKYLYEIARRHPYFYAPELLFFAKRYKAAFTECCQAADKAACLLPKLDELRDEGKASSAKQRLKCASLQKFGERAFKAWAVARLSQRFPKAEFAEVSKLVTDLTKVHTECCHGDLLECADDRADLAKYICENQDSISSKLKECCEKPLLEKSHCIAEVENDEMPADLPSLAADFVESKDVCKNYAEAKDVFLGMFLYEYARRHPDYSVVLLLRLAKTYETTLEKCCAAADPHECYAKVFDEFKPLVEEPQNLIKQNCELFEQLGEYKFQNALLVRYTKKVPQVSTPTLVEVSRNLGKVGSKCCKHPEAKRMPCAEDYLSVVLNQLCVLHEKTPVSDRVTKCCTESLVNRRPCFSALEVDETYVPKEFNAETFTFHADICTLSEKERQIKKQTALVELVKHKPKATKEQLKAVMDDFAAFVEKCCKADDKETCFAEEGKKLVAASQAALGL

NRT [min] (net retention time on columns with immobilized human serum albumin) | SMILES
14.78 | O=C(O)CCCCCCCCCCCCCc1ccc(OCc2ccc(S(=O)(=O)Nc3ncc(C(=O)NCCOCCOCC(=O)NCCOCCOCC(=O)O)cn3)cc2)cc1 [Binder 64]
15.19 | O=C(O)CCCCCCCCCCCCCCCc1ccc(S(=O)(=O)Nc2ncc(C(=O)NCCOCCOCC(=O)NCCOCCOCC(=O)O)cn2)cc1 [Binder 54]
16.76 | O=C(O)CCCCCCCCCc1ccc(OCc2ccc(S(=O)(=O)Nc3ncc(C(=O)NCCOCCOCC(=O)NCCOCCOCC(=O)O)cn3)cc2)cc1 [Binder 1]
16.26 | O=C(O)CCCCCCCCCCCCCc1cccc(S(=O)(=O)Nc2ccc(C(=O)NCCOCCOCC(=O)NCCOCCOCC(=O)O)cn2)c1 [Binder 21]
13.74 | O=C(O)CCCCCCCCCCCCCCCOc1ccc(S(=O)(=O)Nc2ncc(C(=O)NCCOCCOCC(=O)NCCOCCOCC(=O)O)cn2)cc1Cl [Binder 50]
11.36 | O=C(O)CCCCCCCc1ccc(CCOc2ccc(S(=O)(=O)Nc3ccc(C(=O)NCCOCCOCC(=O)NCCOCCOCC(=O)O)cn3)cc2)cc1 [Binder 43]
14.26 | O=C(O)CCCCCCCCCCCCCCCCCOc1ccc(S(=O)(=O)Nc2ccc(C(=O)NCCOCCOCC(=O)NCCOCCOCC(=O)O)cn2)cc1 [Binder 70]
14.42 | O=C(O)CCCCCCCCCCCCCCCCCCCOc1ccc(S(=O)(=O)Nc2ccc(C(=O)NCCOCCOCC(=O)NCCOCCOCC(=O)O)cn2)cc1 [Binder 71]
14.74 | O=C(O)CCCCCCCCCCCCCCCOc1cccc(S(=O)(=O)Nc2ncc(C(=O)NCCOCCOCC(=O)NCCOCCOCC(=O)O)cn2)c1 [Binder 68]
15.01 | O=C(O)CCCCCCCCCCCCCCCCCc1cccc(S(=O)(=O)Nc2ncc(C(=O)NCCOCCOCC(=O)NCCOCCOCC(=O)O)cn2)c1 [Binder 55]
13.8 | O=C(O)CCCCCCCCCCCCCCCOc1ccc(S(=O)(=O)Nc2ncc(C(=O)NCCOCCOCC(=O)NCCOCCOCC(=O)O)c(C(F)(F)F)n2)cc1 [Binder 45]
9.87 | O=C(O)CCCCCCCCCc1ccc(S(=O)(=O)Nc2ncc(C(=O)NCCOCCOCC(=O)NCCOCCOCC(=O)O)cn2)cc1 [Binder 66]
13.96 | O=C(O)CCCCCCCCCCCCCCCOc1cc(Cl)c(S(=O)(=O)Nc2ncc(C(=O)NCCOCCOCC(=O)NCCOCCOCC(=O)O)cn2)cc1Cl [Binder 72]
10.99 | O=C(O)CCCCCCCCCc1ccc(S(=O)(=O)Nc2ccc(C(=O)NCCOCCOCC(=O)NCCOCCOCC(=O)O)cn2)cc1 [Binder 67]
13.42 | O=C(O)CCCCCCCc1cc(Oc2ccc(S(=O)(=O)Nc3ncc(C(=O)NCCOCCOCC(=O)NCCOCCOCC(=O)O)cn3)cc2)ccc1F [Binder 63]
14.56 | O=C(O)CCCCCCCCCc1ccc(Oc2ccc(S(=O)(=O)Nc3ncc(C(=O)NCCOCCOCC(=O)NCCOCCOCC(=O)O)cn3)cc2)cc1F [Binder 52]
13.73 | Cc1nc(NS(=O)(=O)c2ccc(OCCCCCCCCCCCCCCCC(=O)O)cc2)ncc1C(=O)NCCOCCOCC(=O)NCCOCCOCC(=O)O [Binder 47]

SMILES | NRT [min] (net retention time on columns with immobilized human serum albumin)
O=C(O)CCCCCCCCCCCc1cccc(S(=O)(=O)Nc2ccc(C(=O)NCCOCCOCC(=O)NCCOCCOCC(=O)O)cn2)c1 [Binder 65] | 12.21
O=C(O)CCCCCCCCCCCCCCOc1ccc(S(=O)(=O)Nc2ccc(C(=O)NCCOCCOCC(=O)NCCOCCOCC(=O)O)cn2)cc1 [Binder 9] | 14.01

— patent US11098102B2, “Insulin conjugates” (SANOFI, priority 2018, dated 2021)
